Experimental data: patent US20170189416A1, “PHARMACEUTICAL COMPOSITION FOR TREATING BREAST CANCER” (MA SHEN KAI RUEi CO., LTD., priority 2015, published 2017)
Entries after “also recorded” stand apart in the source; their conditions may differ.

Key:
MDA-MB-231 = test: MTT survival assay on human breast-cancer cells MDA-MB-231; type: cell-based; conditions: MDA-MB-231, MTT assay, isolated compound
Description: (§1) According to the present invention, the effects such as treating breast cancer, inhibiting the growth of breast cancer cell and others, of Antroquinonol B (AnQB) and/or dehydroeburicoic acid (DeHBA) may be tested by using any of the test methods used in the prior arts, for example, MTT assay of using 3-(4,5-dimethylthiazol-2-yl)-2, S-diphenyl tetrazolium bromide (MTT) to determine cell survival rates of breast cancer cell lines.
(§2) The Antroquinonol B (AnQB) and dehydroeburicoic acid (DeHBA) separately isolated from the Extraction A of Example 1 were added into the culture media of human breast-cancer cells, MCF-7 or MDA-MB-231, to test for tumor cell survival by using anti-cancer drug screen model. This survival assay was carried out with the widely known MTT (3-[4,5-dimethylthiazol-2-yl]2,5-diphenyltetrazolium bromide) assay.
(§3) MCF-7 cell line (purchased from B CRC) is originated from primary breast cancer cells (early stage), sensitive to estrogen and therefore is estrogen-dependent, while MDA-MB-231 is insensitive to estrogen and therefore is estrogen-independent, which is a difficult tumor with a low survival rate.
(§4) The human breast-cancer cells, MCF-7 and MDA-MB-231 were cultivated in media containing fetal calf serum for 36 hours. The proliferated cells were washed once with PBS, then treated with 1× trypsin-EDTA and centrifuged at 2000 rpm for 25 minutes. The supernatant was discarded and the cell pellet was re-suspended in 30 ml of fresh culture medium by gently shaking. The cells were placed in a 96-well plate.
(§5) Subsequently, the plates were read on an ELISA reader to determine the survival rates. The half maximal inhibitory concentration (IC50) values were calculated and results of ex vivo survival assay were thus obtained.
(§6) By using the same manner as the method described above, respectively human breast cancer cell line MCF-7 and MDA-MB-231 was cultured. After then, the pharmaceutical compositions A˜F of the present invention was applied separately, and then MTT assay for each sample was measured to assess the inhibition effectiveness of various cancer cell activity while using pharmaceutical compositions A˜F of the present invention.

MCF-7 = test: MTT survival assay on human breast-cancer cells MCF-7; type: cell-based; conditions: MCF-7, MTT assay, isolated compound
Description: as §1, §2, §3, §4, §5, §6

SMILES: COC1=C(OC)[C@H](O)[C@H](C/C=C(\C)CC/C=C(/C)C/C=C/C(C)(C)O)[C@@H](C)C1=O [Antroquinonol B]
- half-maximal inhibitory concentration (IC50) (MDA-MB-231): relatively low
- survival rate of breast cancer cell line (MDA-MB-231): can inhibit the growth of breast cancer cell; also recorded: can decrease the survival rates
- half-maximal inhibitory concentration (IC50) (MCF-7): relatively low
- survival rate of breast cancer cell line (MCF-7): can inhibit the growth of breast cancer cell; also recorded: can decrease the survival rates

SMILES: C=C(CC[C@@H](C(=O)O)[C@H]1CC[C@@]2(C)C3=CC[C@H]4C(C)(C)[C@@H](O)CC[C@]4(C)C3=CC[C@]12C)C(C)C [dehydroeburicoic acid]
- half-maximal inhibitory concentration (IC50) (MDA-MB-231): relatively low
- survival rate of breast cancer cell line (MDA-MB-231): can inhibit the growth of breast cancer cell; also recorded: can decrease the survival rates
- half-maximal inhibitory concentration (IC50) (MCF-7): relatively low
- survival rate of breast cancer cell line (MCF-7): can inhibit the growth of breast cancer cell; also recorded: can decrease the survival rates
